{"source": "ChEMBL document CHEMBL6083204", "about": "“Synthesis of a celastrol derivative as a cancer stem cell inhibitor through regulation of the STAT3 pathway for treatment of ovarian cancer” (RSC Med Chem, 2024)", "key": {"A2780 [1]": {"tested_on": "A2780", "experiment": "Antiproliferative activity against human A2780 cells assessed as inhibition of cell growth incubated for 72 hrs by MTT assay", "assay_type": "functional, cell-based", "details": "A2780, 72 h"}, "A2780 [2]": {"tested_on": "A2780", "experiment": "Inhibition of colony formation in human A2780 cells assessed as reduction in colony number incubated for 10 days by crystal violet staining based analysis", "assay_type": "functional, cell-based", "details": "time 10.0 day"}, "SK-OV-3 [3]": {"tested_on": "SK-OV-3", "experiment": "Inhibition of human SK-OV-3 cells spheroid formation assessed as reduction in spheroid number at 0.1 to 0.4 uM incubated for 10 days by inverted microscopic analysis", "assay_type": "functional, cell-based", "details": "dose 0.1-0.4 µM, time 10.0 day"}, "A2780 [4]": {"tested_on": "A2780", "experiment": "Inhibition of human A2780 cells spheroid formation assessed as reduction in spheroid number at 0.1 to 0.4 uM incubated for 10 days by inverted microscopic analysis", "assay_type": "functional, cell-based", "details": "dose 0.1-0.4 µM, time 10.0 day"}, "A2780 [5]": {"tested_on": "A2780", "experiment": "Antiproliferative activity against human A2780 cells assessed as decrease in CD44 positive CD24 negative cells expression at 0.4 uM incubated for 24 hrs by FITC staining based flow cytometry (reference value: 28.13 %)", "assay_type": "functional", "parameters": "scale not given: the % may be the effect or the level left"}, "[6]": {"biological_target": "Tyrosine-protein kinase JAK1 (Homo sapiens) (UniProt P23458)", "sequence (P23458 whole entry)": "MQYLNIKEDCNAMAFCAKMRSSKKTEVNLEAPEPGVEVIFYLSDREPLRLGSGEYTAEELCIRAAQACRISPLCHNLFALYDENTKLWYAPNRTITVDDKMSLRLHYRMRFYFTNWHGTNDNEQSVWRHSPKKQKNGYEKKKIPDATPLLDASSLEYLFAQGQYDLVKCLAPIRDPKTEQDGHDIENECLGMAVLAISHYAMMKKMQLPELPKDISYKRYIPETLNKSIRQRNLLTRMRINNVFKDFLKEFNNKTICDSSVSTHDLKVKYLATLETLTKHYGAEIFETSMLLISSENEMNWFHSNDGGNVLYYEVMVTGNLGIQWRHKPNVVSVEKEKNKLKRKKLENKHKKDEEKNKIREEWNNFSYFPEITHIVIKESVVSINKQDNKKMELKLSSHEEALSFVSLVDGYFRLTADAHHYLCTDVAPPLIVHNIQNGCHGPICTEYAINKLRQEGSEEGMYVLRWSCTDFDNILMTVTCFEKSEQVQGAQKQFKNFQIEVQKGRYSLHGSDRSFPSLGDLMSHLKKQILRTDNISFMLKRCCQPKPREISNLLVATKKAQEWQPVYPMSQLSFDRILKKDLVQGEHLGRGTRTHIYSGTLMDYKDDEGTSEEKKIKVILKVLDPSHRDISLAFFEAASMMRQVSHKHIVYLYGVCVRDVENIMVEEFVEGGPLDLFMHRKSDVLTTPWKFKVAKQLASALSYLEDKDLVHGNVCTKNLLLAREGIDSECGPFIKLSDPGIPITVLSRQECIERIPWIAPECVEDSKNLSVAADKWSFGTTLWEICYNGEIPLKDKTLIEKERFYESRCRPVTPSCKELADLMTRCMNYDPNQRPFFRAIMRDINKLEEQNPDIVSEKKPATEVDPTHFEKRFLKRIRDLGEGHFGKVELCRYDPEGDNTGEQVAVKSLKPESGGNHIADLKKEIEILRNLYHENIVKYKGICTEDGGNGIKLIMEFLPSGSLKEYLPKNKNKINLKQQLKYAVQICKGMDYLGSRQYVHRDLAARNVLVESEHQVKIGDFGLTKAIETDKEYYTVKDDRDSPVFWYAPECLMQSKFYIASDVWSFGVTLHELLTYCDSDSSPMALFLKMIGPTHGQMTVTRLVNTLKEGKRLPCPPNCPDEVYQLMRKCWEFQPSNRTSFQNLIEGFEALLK", "experiment": "Inhibition of JAK1 in human SK-OV-3 cells assessed as downregulation of JAK1 expression at 0.1 to 0.4 uM incubated for 24 hrs by Western blotting analysis", "assay_type": "cell-based", "details": "dose 0.1-0.4 µM"}, "[7]": {"biological_target": "Tyrosine-protein kinase JAK2 (Homo sapiens) (UniProt O60674)", "sequence (O60674 whole entry)": "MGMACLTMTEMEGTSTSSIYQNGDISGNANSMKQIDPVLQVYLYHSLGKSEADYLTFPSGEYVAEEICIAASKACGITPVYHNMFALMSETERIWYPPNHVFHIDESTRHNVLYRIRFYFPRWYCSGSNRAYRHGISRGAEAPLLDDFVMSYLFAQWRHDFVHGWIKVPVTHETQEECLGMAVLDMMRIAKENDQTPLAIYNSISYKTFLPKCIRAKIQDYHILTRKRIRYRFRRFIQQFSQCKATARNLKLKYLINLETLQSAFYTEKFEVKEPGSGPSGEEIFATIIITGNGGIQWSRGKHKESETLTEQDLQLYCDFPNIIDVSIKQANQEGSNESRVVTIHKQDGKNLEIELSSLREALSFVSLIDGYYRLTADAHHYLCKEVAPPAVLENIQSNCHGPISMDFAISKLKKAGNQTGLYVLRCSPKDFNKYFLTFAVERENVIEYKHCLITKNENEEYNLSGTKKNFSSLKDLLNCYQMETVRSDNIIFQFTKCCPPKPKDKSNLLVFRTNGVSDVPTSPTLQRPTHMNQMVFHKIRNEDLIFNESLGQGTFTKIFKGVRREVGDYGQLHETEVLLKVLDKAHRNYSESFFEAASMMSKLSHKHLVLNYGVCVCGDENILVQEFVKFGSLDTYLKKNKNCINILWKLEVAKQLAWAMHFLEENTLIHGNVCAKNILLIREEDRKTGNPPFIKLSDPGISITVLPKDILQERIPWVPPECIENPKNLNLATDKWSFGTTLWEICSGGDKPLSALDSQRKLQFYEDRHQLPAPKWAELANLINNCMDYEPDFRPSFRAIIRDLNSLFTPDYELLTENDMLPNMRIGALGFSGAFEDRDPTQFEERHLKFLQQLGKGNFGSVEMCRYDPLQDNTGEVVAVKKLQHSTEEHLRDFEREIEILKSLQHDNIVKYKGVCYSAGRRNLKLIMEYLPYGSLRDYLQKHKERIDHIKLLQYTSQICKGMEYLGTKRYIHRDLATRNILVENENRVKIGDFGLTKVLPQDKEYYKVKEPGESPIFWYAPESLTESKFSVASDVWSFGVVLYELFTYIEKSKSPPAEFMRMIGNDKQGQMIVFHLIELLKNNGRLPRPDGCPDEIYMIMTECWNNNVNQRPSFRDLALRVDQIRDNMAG", "experiment": "Inhibition of JAK2 in human SK-OV-3 cells assessed as downregulation of JAK2 phosphorylation at 0.1 to 0.4 uM incubated for 24 hrs by Western blotting analysis", "assay_type": "cell-based", "details": "dose 0.1-0.4 µM"}, "[8]": {"biological_target": "Signal transducer and activator of transcription 3 (Homo sapiens) (UniProt P40763)", "sequence (P40763 whole entry)": "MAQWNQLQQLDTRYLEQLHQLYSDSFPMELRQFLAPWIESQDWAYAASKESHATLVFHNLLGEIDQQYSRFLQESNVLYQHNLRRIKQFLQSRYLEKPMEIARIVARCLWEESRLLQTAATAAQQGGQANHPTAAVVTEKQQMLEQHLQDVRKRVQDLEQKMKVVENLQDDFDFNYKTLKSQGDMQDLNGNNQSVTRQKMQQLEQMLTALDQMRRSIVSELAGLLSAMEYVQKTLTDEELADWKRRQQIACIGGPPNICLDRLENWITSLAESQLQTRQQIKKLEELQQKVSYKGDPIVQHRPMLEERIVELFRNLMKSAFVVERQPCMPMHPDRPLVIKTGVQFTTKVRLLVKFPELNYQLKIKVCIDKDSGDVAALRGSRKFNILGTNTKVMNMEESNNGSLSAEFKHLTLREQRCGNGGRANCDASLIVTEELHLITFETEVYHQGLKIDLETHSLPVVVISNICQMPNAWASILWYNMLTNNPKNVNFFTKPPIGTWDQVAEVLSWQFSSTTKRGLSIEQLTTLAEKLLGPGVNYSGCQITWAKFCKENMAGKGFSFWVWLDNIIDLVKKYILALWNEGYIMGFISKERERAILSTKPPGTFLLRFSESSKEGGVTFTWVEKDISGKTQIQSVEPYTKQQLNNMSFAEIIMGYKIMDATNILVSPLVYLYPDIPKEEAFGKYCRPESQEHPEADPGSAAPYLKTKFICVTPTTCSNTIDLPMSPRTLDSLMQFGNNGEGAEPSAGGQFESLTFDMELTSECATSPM", "experiment": "Inhibition of STAT3 in human SK-OV-3 cells assessed as downregulation of STAT3 phosphorylation at Tyr705 residue in nuclei at 0.2 uM incubated for 24 hrs by Hoechst33342 staining based immunofluorescence assay", "assay_type": "cell-based"}, "[9]": {"biological_target": "Signal transducer and activator of transcription 3 (Homo sapiens) (UniProt P40763)", "experiment": "Inhibition of STAT3 in human A2780 cells assessed as downregulation of cytoplasmic STAT3 expression at 0.2 uM incubated for 24 hrs by Hoechst33342 staining based immunofluorescence assay", "assay_type": "cell-based"}, "SK-OV-3 [10]": {"tested_on": "SK-OV-3", "experiment": "Induction of cell cycle arrest in human SK-OV-3 cells assessed as accumulation of cells at S phase at 0.2 uM incubated for 24 hrs by BrdU staining based flow cytometry (reference value: 33.6 %)", "assay_type": "functional"}, "SK-OV-3 [11]": {"tested_on": "SK-OV-3", "experiment": "Induction of cell cycle arrest in human SK-OV-3 cells assessed as accumulation of cells at G2/M phase at 0.4 uM incubated for 24 hrs by BrdU staining based flow cytometry (reference value: 6.3 %)", "assay_type": "functional"}, "A2780 [12]": {"tested_on": "A2780", "experiment": "Induction of cell cycle arrest in human A2780 cells assessed as accumulation of cells at G2/M phase at 0.2 uM incubated for 24 hrs by BrdU staining based flow cytometry (reference value: 6.2 %)", "assay_type": "functional"}, "SK-OV-3 [13]": {"tested_on": "SK-OV-3", "experiment": "Induction of cell cycle arrest in human SK-OV-3 cells assessed as reduction of CDK2 expression at 0.8 uM incubated for 24 hrs by flow cytometry (reference value: 94.4 %)", "assay_type": "functional", "parameters": "scale not given: the % may be the effect or the level left"}, "SK-OV-3 [14]": {"tested_on": "SK-OV-3", "experiment": "Induction of cell cycle arrest in human SK-OV-3 cells assessed as reduction of Cyclin D1 expression at 0.8 uM incubated for 24 hrs by flow cytometry (reference value: 93.8 %)", "assay_type": "functional", "parameters": "scale not given: the % may be the effect or the level left"}, "A2780 [15]": {"tested_on": "A2780", "experiment": "Induction of cell cycle arrest in human A2780 cells assessed as reduction of CDK4 expression at 0.2 uM incubated for 24 hrs by flow cytometry (reference value: 93.6 %)", "assay_type": "functional", "parameters": "scale not given: the % may be the effect or the level left"}, "A2780 [16]": {"tested_on": "A2780", "experiment": "Induction of cell cycle arrest in human A2780 cells assessed as reduction of Cyclin D1 expression at 0.4 uM incubated for 24 hrs by flow cytometry (reference value: 92.5 %)", "assay_type": "functional", "parameters": "scale not given: the % may be the effect or the level left"}, "SK-OV-3 [17]": {"tested_on": "SK-OV-3", "experiment": "Induction of apoptosis in human SK-OV-3 cells assessed as early apoptotic cells at 0.2 uM incubated for 24 hrs by Annexin V-FITC/7-AAD staining based flow cytometry (reference value: 1.6 %)", "assay_type": "functional"}, "SK-OV-3 [18]": {"tested_on": "SK-OV-3", "experiment": "Induction of apoptosis in human SK-OV-3 cells assessed as early apoptotic cells at 0.4 uM incubated for 24 hrs by Annexin V-FITC/7-AAD staining based flow cytometry (reference value: 1.6 %)", "assay_type": "functional"}, "SK-OV-3 [19]": {"tested_on": "SK-OV-3", "experiment": "Induction of apoptosis in human SK-OV-3 cells assessed as late apoptotic cells at 0.8 uM incubated for 24 hrs by Annexin V-FITC/7-AAD staining based flow cytometry (reference value: 3.7 %)", "assay_type": "functional"}, "A2780 [20]": {"tested_on": "A2780", "experiment": "Induction of apoptosis in human A2780 cells assessed as late apoptotic cells at 0.2 uM incubated for 24 hrs by Annexin V-FITC/7-AAD staining based flow cytometry (reference value: 2.1 %)", "assay_type": "functional"}, "A2780 [21]": {"tested_on": "A2780", "experiment": "Induction of apoptosis in human A2780 cells assessed as necrotic cells at 0.2 uM incubated for 24 hrs by Annexin V-FITC/7-AAD staining based flow cytometry (reference value: 1 %)", "assay_type": "functional"}, "Mitochondrial membrane": {"tested_on": "Mitochondrial membrane", "experiment": "Induction of mitochondrial membrane potential loss in human A2780 cells at 0.1 uM incubated for 24 hrs by JC-1 staining based flow cytometry (reference value: 81 %)"}, "SK-OV-3 [22]": {"tested_on": "SK-OV-3", "experiment": "Induction of apoptosis in human SK-OV-3 cells assessed as increase in caspase-8 activity at 0.4 uM incubated for 24 hrs by flow cytometry (reference value: 2.5 %)", "assay_type": "functional"}, "SK-OV-3 [23]": {"tested_on": "SK-OV-3", "experiment": "Induction of apoptosis in human SK-OV-3 cells assessed as increase in caspase-8 activity at 0.8 uM incubated for 24 hrs by flow cytometry (reference value: 2.5 %)", "assay_type": "functional"}, "A2780 [24]": {"tested_on": "A2780", "experiment": "Induction of apoptosis in human A2780 cells assessed as increase in caspase-3 activity at 0.2 uM incubated for 24 hrs by flow cytometry (reference value: 1.5 %)", "assay_type": "functional"}, "A2780 [25]": {"tested_on": "A2780", "experiment": "Induction of apoptosis in human A2780 cells assessed as increase in caspase-3 activity at 0.4 uM incubated for 24 hrs by flow cytometry (reference value: 1.5 %)", "assay_type": "functional"}, "A2780 [26]": {"tested_on": "A2780", "experiment": "Inhibition of cell invasion in human A2780 cells incubated for 24 hrs by crystal violet staining based transwell assay", "assay_type": "functional"}, "SK-OV-3 [27]": {"tested_on": "SK-OV-3", "experiment": "Inhibition of cell migration in human SK-OV-3 cells assessed as downregulation of phosphorylated FAK expression at 0.1 to 0.4 uM incubated for 24 hrs by Western blotting analysis", "assay_type": "functional, cell-based", "details": "dose 0.1-0.4 µM"}, "SK-OV-3 [28]": {"tested_on": "SK-OV-3", "experiment": "Antitumor activity against human SK-OV-3 cells xenografted in BALB/c mouse assessed as reduction in tumor weight at 2 mg/kg,ip administrated for 21 consecutive days", "assay_type": "functional, organism-based"}, "[29]": {"experiment": "Toxicity in BALB/c mouse xenografted with human SK-OV-3 cells assessed as change in body weight at 2 to 5 mg/kg,ip administrated for 21 consecutive days", "assay_type": "organism-based", "details": "in vivo, dose 2-5 mg/kg"}, "[30]": {"experiment": "Toxicity in BALB/c mouse xenografted with human SK-OV-3 cells assessed as pathological change in heart at 2 to 5 mg/kg,ip administrated for 21 consecutive days by hematoxylin and eosin staining based assay", "assay_type": "organism-based", "details": "in vivo, dose 2-5 mg/kg"}, "[31]": {"experiment": "Toxicity in BALB/c mouse xenografted with human SK-OV-3 cells assessed as pathological change in liver at 2 to 5 mg/kg,ip administrated for 21 consecutive days by hematoxylin and eosin staining based assay", "assay_type": "organism-based", "details": "in vivo, dose 2-5 mg/kg"}, "[32]": {"experiment": "Toxicity in BALB/c mouse xenografted with human SK-OV-3 cells assessed as pathological change in spleen at 2 to 5 mg/kg,ip administrated for 21 consecutive days by hematoxylin and eosin staining based assay", "assay_type": "organism-based", "details": "in vivo, dose 2-5 mg/kg"}}, "note": "Active and inactive are the calls of the source. The calls are words filed in the database; no cut-off is given here.", "data": [{"compound": "CC1=C(O)C(=O)C=C2C1=CC=C1[C@@]2(C)CC[C@@]2(C)[C@@H]3C[C@](C)(C(=O)N4CCNCC4)CC[C@]3(C)CC[C@]12C", "values": [{"measurement": "IC50", "setting": "A2780 [1]", "value": 140, "unit": "nM"}, {"measurement": "inhibition", "setting": "A2780 [2]", "value": "Dose-dependent-effect"}, {"measurement": "inhibition", "setting": "SK-OV-3 [3]", "value": "Active"}, {"measurement": "inhibition", "setting": "A2780 [4]", "value": "Active"}, {"measurement": "Activity", "setting": "A2780 [5]", "value": 2.93, "unit": "%"}, {"measurement": "inhibition", "setting": "[6]", "value": "Active"}, {"measurement": "inhibition", "setting": "[7]", "value": "Active"}, {"measurement": "inhibition", "setting": "[8]", "value": "Active"}, {"measurement": "inhibition", "setting": "[9]", "value": "Active; Showed Mild Inhibition Activity"}, {"measurement": "Activity", "setting": "SK-OV-3 [10]", "value": 33.8, "unit": "%"}, {"measurement": "Activity", "setting": "SK-OV-3 [11]", "value": 7.4, "unit": "%"}, {"measurement": "Activity", "setting": "A2780 [12]", "value": 4.8, "unit": "%"}, {"measurement": "Activity", "setting": "SK-OV-3 [13]", "value": 57.5, "unit": "%"}, {"measurement": "Activity", "setting": "SK-OV-3 [14]", "value": 53.1, "unit": "%"}, {"measurement": "Activity", "setting": "A2780 [15]", "value": 74.6, "unit": "%"}, {"measurement": "Activity", "setting": "A2780 [16]", "value": 67.7, "unit": "%"}, {"measurement": "Activity", "setting": "SK-OV-3 [17]", "value": 17.3, "unit": "%"}, {"measurement": "Activity", "setting": "SK-OV-3 [18]", "value": 23.3, "unit": "%"}, {"measurement": "Activity", "setting": "SK-OV-3 [19]", "value": 17.4, "unit": "%"}, {"measurement": "Activity", "setting": "A2780 [20]", "value": 5.3, "unit": "%"}, {"measurement": "Activity", "setting": "A2780 [21]", "value": 1, "unit": "%"}, {"measurement": "Activity", "setting": "Mitochondrial membrane", "value": 56.4, "unit": "%"}, {"measurement": "Activity", "setting": "SK-OV-3 [22]", "value": 36.7, "unit": "%"}, {"measurement": "Activity", "setting": "SK-OV-3 [23]", "value": 74.7, "unit": "%"}, {"measurement": "Activity", "setting": "A2780 [24]", "value": 3.7, "unit": "%"}, {"measurement": "Activity", "setting": "A2780 [25]", "value": 24.1, "unit": "%"}, {"measurement": "inhibition", "setting": "A2780 [26]", "value": "Dose-dependent-effect"}, {"measurement": "inhibition", "setting": "SK-OV-3 [27]", "value": "Active"}, {"measurement": "Activity", "setting": "SK-OV-3 [28]", "value": "Active"}, {"measurement": "Activity", "setting": "[29]", "value": "Non-toxic"}, {"measurement": "Activity", "setting": "[30]", "value": "Non-toxic"}, {"measurement": "Activity", "setting": "[31]", "value": "Non-toxic"}, {"measurement": "Activity", "setting": "[32]", "value": "Non-toxic"}]}]}
